The results in this text go back to patent US20260240962A1, “PHARMACEUTICAL COMPOSITION FOR TREATING AND/OR PREVENTING CANCER” (TORAY INDUSTRIES, INC., priority 2023, published 2026).

The test system of assay [1] is CAPRIN-1 protein on the membrane surface of the cancer cells. Put plainly: Flow cytometry of CAPRIN-1 protein on the membrane surface of HCT-116 treated with low molecular weight compounds. In kind it is cell-based, human. Particulars: 1 to 3 days, vs DMSO negative control. As for the experimental part:
2×10^5 cancer cells suspended in Dulbecco's PBS(−) containing 1% fetal bovine serum (hereinafter, 1% FCS-PBS(−)) were reacted with an antibody against CAPRIN-1 at a concentration of 1 to 10 μg/mL, and then allowed to react on ice (or at 4° C.) for 1 hour.
After the antibody reaction, cells were washed with 1% FCS-PBS (−) and then reacted with a fluorescently labeled anti-IgG secondary antibodies (FITC Goat anti-rabbit IgG (BD Biosciences, 554020), Alexa Fluor 488 anti-rabbit IgG (H+L) (Invitrogen, A21206), Alexa Fluor 647 anti-rabbit IgG (BioLegend, 406414). Alexa Fluor 488 F(ab′)2 anti-mouse IgG (H+L) (Invitrogen, A11017) or Alexa Fluor 488 anti-human IgG (H+L) (Invitrogen, A11013) at a concentration of 1 to 10 μg/mL for reaction with an antibody against CAPRIN-1, followed by 1 hour of reaction on ice (or at 4° C.). After reaction with the fluorescently labeled secondar antibodies, cells were washed with 1% FCS-PBS(−) and then reacted with a PI (propidium iodide) solution (DOJINDO, 341-07881) or Fixable Viability Stain 450 (BD Horizon) prepared at a concentration of 0.1 μg/mL for 15 minutes. Cells were then washed with 1% FCS-PBS(−) and then the scattered light intensity and fluorescence intensity were measured using a flow cytometer according to a standard method.

Assay [2] relates to HCT-116. Nature of the assay: Antitumor effect in HCT-116 cancer-bearing nude mice. The assay is classed as in vivo. The conditions noted are these: HCT-116 subcutaneous in nude mice; 10 mg/kg twice a week into the tail vein. The procedure:
The antitumor effect of Dorsomorphin, which was an AMPK inhibitor, confirmed in Example 9 to have the effect of reducing the expression of the CAPRIN-1 protein on the membrane surface of the cancer cells, was confirmed. HCT-116, which were the cancer cells confirmed to express the CAPRIN-1 protein on the cell membrane surface were cultured in a normal culture flask using a complete medium containing 10% fetal bovine serum according to a standard method, and then mixed with RPMI-1640 medium containing 20% Matrigel Basement Membrane Matrix (Corning, 354234), and 1 to 2×10^7 cancer cells per mouse were subcutaneously inoculated into nude mice under anesthesia. After the cancer cells were inoculated, the size of the cancer in each cancer-bearing mouse was measured over time using a vernier caliper, and the tumor volume was calculated for each individual mouse using the formula: (length of the long axis of the cancer)×(length of the short axis of the cancer) 2×0.5 according to a standard method, and the average value of the administration group was calculated. After the cancer cells were inoculated, Dorsomorphin was administered at 10 mg/kg twice a week into the tail vein of each cancer-bearing mouse whose tumor size reached 100 to 200 mm^3 or more. […]

The test system of assay [3] is OVCAR3. Nature of the assay: Soft agar colony formation assay (anchorage-independent colony-forming ability), OVCAR3. In kind it is cell-based, human. The conditions noted are these: OVCAR3 treated with trypsin vs not treated, 2 to 4 weeks. As for the experimental part:
(§1) 10^4 cells of each of the above cells were suspended in DMEM medium gel containing 10% fetal bovine serum containing 0.4% soft agar (Difco, 214220), added to a Petri dish with a diameter of 35 mm, and then incubated under an environment of 37° C. and 5% CO2 for 2 to 4 weeks. After incubation, the number of colonies formed in the gel was counted.

Assay [4] concerns SK-MEL-5. Nature of the assay: Soft agar colony formation assay (anchorage-independent colony-forming ability), SK-MEL-5. In kind it is cell-based, human. The conditions noted are these: SK-MEL-5 treated with trypsin vs not treated, 2 to 4 weeks. As for the experimental part:
as §1
SK-MEL-5, winch were the cancer cells confirmed to express the CAPRIN-1 protein on the cell membrane surface in Example 3, was cultured in a normal culture flask using a complete medium containing 10% fetal bovine serum under an environment of 37° C. and 5% CO2. The cultured SK-MEL-5 was collected from the flask using a cell scraper. […] On the other hand, […], SK-MEL-5, […], was used to evaluate the anchorage-independent colony-forming ability by soft agar colony formation assay. 10^4 cells of each of the above cells were suspended in a DMEM medium gel containing 10% fetal bovine serum containing 0.4% soft agar (Difco, 214220), added to a Petri dish with a diameter of 35 mm, and then incubated under an environment of 37° C. and 5% CO2 for 2 to 4 weeks.

Assay [5] deals with CAPRIN-1 protein on the cell membrane surface. Put plainly: Flow cytometry of CAPRIN-1 protein on the cell membrane surface after trypsin treatment. Particulars: Trypsin/EDTA (0.05%) for 5 minutes, vs cells not treated. The assay is classed as cell-based, human. As for the experimental part:
The expression of the CAPRIN-1 protein on the cell membrane surface of the cancer cells for which the expression of the CAPRIN-1 gene was confirmed in Example 1 was confirmed by flow cytometry. 2×10^5 cancer cells suspended in Dulbecco's PBS(−) containing 1% fetal bovine serum (hereinafter, 1% FCS-PBS(−)) were reacted with an antibody against CAPRIN-1 at a concentration of 1 to 10 μg/mL, and then allowed to react on ice (or at 4° C.) for 1 hour. […]
SK-MEL-5 and OVCAR3, which were the cancer cells confirmed to express the CAPRIN-1 protein on the cell membrane surface in Example 3, were cultured in a normal culture flask using a complete medium containing 10% fetal bovine serum under an environment of 37° C. and 5% CO2. […] Portions of the collected cells were treated with a solution containing trypsin, which was a digestive enzyme, (Thermo, Trypsin/EDTA (0.05%)) for 5 minutes, and then the proportions of live cells and dead cells stained with trypan blue were measured and calculated using the trypan blue exclusion method according to a standard method, and then the cell density of live cells was calculated. […]
In general terms: Flow cytometry measures light scatter and fluorescence of single cells or particles in a stream.

Some results are limits rather than exact numbers.

For the molecule `CCN(CC)CCCC(C)Nc1nc(C)cc(Nc2ccc3nc(C)cc(N)c3c2)n1.Cl.Cl.Cl` (racemic) [Rac1 inhibitor (CAS #1177865-17-6)], in assay [1] (final concentration 250 nM), the “expression of the CAPRIN-1 protein on the membrane surface of the cancer cells” value (shortened to “expression … of the cancer cells”) was “clearly reduced”.

Turning to `c1cc(-c2cnn3cc(-c4ccc(OCCN5CCCCC5)cc4)cnc23)ccn1` [Dorsomorphin], the “tumor size, when the tumor size of the untreated cancer-bearing mice was taken as 100%” value in assay [2] is given as ≤ 70%.

On to `O=C(N/N=C/c1ccc(O)c(O)c1)c1cc2ccccc2cc1O` [Dynasore], for which, in assay [1] (final concentration 100 μM), the “expression … of the cancer cells” value was “clearly reduced”.

For the molecule `COc1ccc(CNC(=O)Nc2ncc([N+](=O)[O-])s2)cc1` [GSK-3D inhibitor VIII], the “expression … of the cancer cells” value in assay [1] (final concentration 10 μM) is listed as “clearly reduced”.

Take `FC(F)(F)c1ccc(/C=C/c2nc(COc3ccc(CCCCn4ccnn4)cc3)co2)cc1` [Mubritinib]: the “expression … of the cancer cells” value in assay [1] (final concentration 1 μM) is reported as “clearly reduced”.

Consider `Cc1ccc(C(=O)Cn2c3c(sc2=N)CCCC3)cc1` [Pifithrin-α], for which the “expression … of the cancer cells” value in assay [1] (final concentration 30 μM) is reported as “clearly reduced”.

`Cn1c2cccc(=O)c-2nc2ccccc21` [Pyocyanin]: the “expression … of the cancer cells” value in assay [1] (final concentration 20 μM) was “clearly reduced”.

On to `COc1cccc(-c2cc(NCc3ccc4c(c3)OCO4)nc(N)n2)c1` [Wnt agonist 1], for which the “expression … of the cancer cells” value in assay [1] (final concentration 20 μM) was “clearly reduced”.

On to `Cc1cc(-c2ccc(CC(=O)Nc3ccc(-c4cccnc4)cc3)cc2)ccn1` [Wnt-C59], for which, in assay [1] (final concentration 5 μM), the “expression … of the cancer cells” value is “clearly reduced”.

B1: trypsin (protein, UniProt P00761 9-231, looked up)
Trypsin: IVGGYTCAANSIPYQVSLNSGSHFCGGSLINSQWVVSAAHCYKSRIQVRLGEHNIDVLEGNEQFINAAKIITHPNFNGNTLDNDIMLIKLSSPATLNSRVATVSLPRSCAAAGTECLISGWGNTKSSGSSYPSLLQCLKAPVLSDSSCKSSYPGQITGNMICVGFLEGGKDSCQGDSGGPVVCNGQLQGIVSWGYGCAQKNKPGVYTKVCNYVNWIQQTIAAN
modifications: EDTA solution
notes: hydrolytic / digestive enzyme; solution containing trypsin (Thermo, Trypsin/EDTA (0.05%))
In the case of B1, the “number of colonies formed” value in assay [3] and in assay [4] was “significantly lower” throughout. Further, the “expression of the CAPRIN-1 protein on the cell membrane surface” value in assay [5] (OVCAR3) and in assay [5] (SK-MEL-5) was “reduced” throughout.
